# Test results: patent US20050004172A1, “Solid state forms of 5-(difluoro-methoxy)-2-((3,4-dimethoxy-2-pyridinyl)-methyl) sulfinyl]-1H-benzimidazole sodium aquo complexes” (Pliva-Istrazivacki Institut d.o.o., priority 2003, published 2005)
# Key:
# [1] = Solid-state stability under normal storage conditions; type: physicochemical; settings: typically, but not limited to, temperatures of about 20° C. to about 30° C., relative humidity of about 30% to about 60%
# [2] = Solid-state form conversion under crushing or compressing; type: physicochemical
stability under normal storage conditions [1],conversion into other known solid-state forms of pantoprazole sodium [2],SMILES
stable,does not convert,"COc1ccnc(C[S+]([O-])c2nc3ccc(OC(F)F)cc3[nH]2)c1OC (centres unmarked) [Form A4, 5-(difluoromethoxy)-2-[[(3,4-dimethoxy-2-pyridinyl)methyl]sulfinyl]-1H-benzimidazole]"
stable,does not convert,"COc1ccnc(C[S+]([O-])c2nc3ccc(OC(F)F)cc3[nH]2)c1OC (centres unmarked) [Form A3, 5-(difluoromethoxy)-2-[[(3,4-dimethoxy-2-pyridinyl)methyl]sulfinyl]-1H-benzimidazole]"
stable,does not convert,"COc1ccnc(C[S+]([O-])c2nc3ccc(OC(F)F)cc3[nH]2)c1OC (centres unmarked) [Form A1, 5-(difluoromethoxy)-2-[[(3,4-dimethoxy-2-pyridinyl)methyl]sulfinyl]-1H-benzimidazole]"
stable,does not convert,"COc1ccnc(C[S+]([O-])c2nc3ccc(OC(F)F)cc3[nH]2)c1OC (centres unmarked) [Form A2, 5-(difluoromethoxy)-2-[[(3,4-dimethoxy-2-pyridinyl)methyl]sulfinyl]-1H-benzimidazole]"
